In patent publication US9302999B2, “Substituted triazoles as herbicides” (E. I. DU PONT DE NEMOURS AND COMPANY, priority 2012, dated 2016):

Assays:
Assay type in all cases: in vivo
[1] = test system: Russian thistle (Salsola iberica); assay: Test D pre-/postemergence: Russian thistle; conditions: Postemergence; for Plant response rating, Russian Thistle: 16 g ai/ha, scale 0 to 100
Method in brief: (§1)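 Applied as a non-phytotoxic solvent formulation with surfactant, compounds were tested preemergence in silt loam and postemergence on seedlings 2 to 18 cm high in peat-vermiculite medium. Evaluation was visual, 0 meaning no effect and 100 complete control, at 14 to 21 days.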

[2] = test system: nutsedge, yellow (yellow nutsedge, Cyperus esculentus); assay: Test F pre-/postemergence: nutsedge, yellow; conditions: Preemergence
Method in brief: (§2)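 0–100 visual control scores, taken 14–21 d after application in the greenhouse. Preemergence treatment was made to silt loam soil at sowing. Postemergence sprays hit 1- to 4-leaf plants (2–18 cm) in peat/vermiculite mix. Surfactant-containing non-phytotoxic solvent served as the vehicle.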

[3] = test system: ryegrass, Italian (Italian ryegrass, Lolium multiflorum); assay: Test F pre-/postemergence: ryegrass, Italian
Method in brief: as §2

[4] = test system: bluegrass (annual bluegrass, Poa annua); assay: Test D pre-/postemergence: bluegrass
Method in brief: as §1

[5] = test system: pigweed, palmer (palmer pigweed, Amaranthus palmeri); assay: Test F pre-/postemergence: pigweed, palmer; conditions: scale 0 to 100
Method in brief: as §2

[6] = test system: surinam grass (Brachiaria decumbens); assay: Test F pre-/postemergence: surinam grass; conditions: Preemergence
Method in brief: as §2

[7] = test system: crabgrass, Brazil (Brazilian crabgrass, Digitaria horizontalis); assay: Test F pre-/postemergence: crabgrass, Brazil; conditions: scale 0 to 100
Method in brief: as §2

[8] = test system: ragweed (common ragweed, Ambrosia elatior); assay: Test F pre-/postemergence: ragweed; conditions: Preemergence
Method in brief: as §2

[9] = 31 g ai/ha, scale 0 to 100 (0 no effect, 100 complete control)
[10] = 62 g ai/ha, scale 0 to 100 (0 no effect, 100 complete control)
[11] = 125 g ai/ha, scale 0 to 100, 0 no effect, 100 complete control
[12] = Preemergence, 125 g ai/ha, scale 0 to 100
[13] = Postemergence, 31 g ai/ha, scale 0 to 100 (0 no effect, 100 complete control)
[14] = Postemergence, 62 g ai/ha, scale 0 to 100 (0 no effect, 100 complete control)
[15] = Postemergence, 125 g ai/ha, scale 0 to 100, 0 no effect, 100 complete control
[16] = Postemergence, 16 g ai/ha, scale 0 to 100
[17] = Preemergence, 16 g ai/ha, scale 0 to 100, 0 no effect, 100 complete control
[18] = Preemergence, 31 g ai/ha, scale 0 to 100, 0 no effect, 100 complete control
[19] = Preemergence, 62 g ai/ha, scale 0 to 100
[20] = 8 g ai/ha, scale 0 to 100, 0 no effect, 100 complete control
[21] = 16 g ai/ha, scale 0 to 100, 0 no effect, 100 complete control
[22] = 31 g ai/ha, scale 0 to 100, 0 no effect, 100 complete control

## CCc1nn(-c2ccc(C(F)(F)F)cc2)nc1Cc1ccnc(C(F)(F)F)c1 [Compound 155]
[1]; [9]
  Plant response rating: Russian Thistle: 80
[1]; [10]
  Plant response rating: Russian Thistle: 85
[1]; [11]
  Plant response rating: Russian Thistle: 85
[1]
  Plant response rating, Russian Thistle: 70
[2]; 125 g ai/ha, scale 0 to 100
  Plant response rating, Nutsedge, Yellow: 25
[2]; 250 g ai/ha, scale 0 to 100
  Plant response rating, Nutsedge, Yellow: 30
[3]; [12]
  Plant response rating, Ryegrass, Italian: 85
[3]; Preemergence, 250 g ai/ha, scale 0 to 100
  Plant response rating, Ryegrass, Italian: 95
[4]; [13]
  Plant response rating: Bluegrass: 35
[4]; [14]
  Plant response rating: Bluegrass: 75
[4]; [15]
  Plant response rating: Bluegrass: 90
[4]; [16]
  Plant response rating, Bluegrass: 20
[4]; [17]
  Plant response rating, Bluegrass: 15
[4]; [18]
  Plant response rating, Bluegrass: 15
[4]; [19]
  Plant response rating, Bluegrass: 60
[4]; [12]
  Plant response rating, Bluegrass: 85
[5]; Preemergence, 125 g ai/ha
  Plant response rating, Pigweed, Palmer: 100
[5]; Preemergence, 250 g ai/ha
  Plant response rating, Pigweed, Palmer: 100
[6]; 125 g ai/ha, scale 0 to 100
  Plant response rating, Surinam Grass: 90
[6]; 250 g ai/ha, scale 0 to 100
  Plant response rating, Surinam Grass: 90
[7]; Preemergence, 62 g ai/ha
  Plant response rating, Crabgrass, Brazil: 100
[7]; Preemergence, 125 g ai/ha
  Plant response rating, Crabgrass, Brazil: 100
[7]; Preemergence, 250 g ai/ha
  Plant response rating, Crabgrass, Brazil: 100
[8]; 125 g ai/ha, scale 0 to 100
  Plant response rating, Ragweed: 50
[8]; 250 g ai/ha, scale 0 to 100
  Plant response rating, Ragweed: 80

## CCOc1nn(-c2ccc(F)cc2)nc1Cc1ccnc(C(F)(F)F)c1 [Compound 196, 4-[[5-ethoxy-2-(4-fluorophenyl)-2H-1,2,3-triazol-4-yl]methyl]-2-(trifluoromethyl)pyridine]
[1]; [9]
  Plant response rating: Russian Thistle: 90
[1]; [10]
  Plant response rating: Russian Thistle: 80
[1]; [11]
  Plant response rating: Russian Thistle: 75
[1]
  Plant response rating, Russian Thistle: 80
[2]; [20]
  Plant response rating, Nutsedge, Yellow: 0
[2]; [21]
  Plant response rating, Nutsedge, Yellow: 0
[2]; [22]
  Plant response rating, Nutsedge, Yellow: 0
[2]; 125 g ai/ha, scale 0 to 100
  Plant response rating, Nutsedge, Yellow: 75
[3]; Postemergence, 8 g ai/ha, scale 0 to 100
  Plant response rating, Ryegrass, Italian: 15
[3]; [16]
  Plant response rating, Ryegrass, Italian: 20
[3]; Postemergence, 31 g ai/ha, scale 0 to 100
  Plant response rating, Ryegrass, Italian: 40
[3]; Postemergence, 62 g ai/ha, scale 0 to 100
  Plant response rating, Ryegrass, Italian: 70
[3]; Postemergence, 125 g ai/ha, scale 0 to 100
  Plant response rating, Ryegrass, Italian: 80
[3]; Preemergence, 8 g ai/ha, scale 0 to 100, 0 no effect, 100 complete control
  Plant response rating, Ryegrass, Italian: 0
[3]; [17]
  Plant response rating, Ryegrass, Italian: 40
[3]; [18]
  Plant response rating, Ryegrass, Italian: 75
[3]; [12]
  Plant response rating, Ryegrass, Italian: 100
[4]; [13]
  Plant response rating: Bluegrass: 70
[4]; [14]
  Plant response rating: Bluegrass: 75
[4]; [15]
  Plant response rating: Bluegrass: 80
[4]; [16]
  Plant response rating, Bluegrass: 60
[4]; [17]
  Plant response rating, Bluegrass: 5
[4]; [18]
  Plant response rating, Bluegrass: 35
[4]; [19]
  Plant response rating, Bluegrass: 75
[4]; [12]
  Plant response rating, Bluegrass: 100
[5]; Postemergence, 8 g ai/ha
  Plant response rating, Pigweed, Palmer: 95
[5]; Postemergence, 16 g ai/ha
  Plant response rating, Pigweed, Palmer: 100
[5]; Postemergence, 31 g ai/ha
  Plant response rating, Pigweed, Palmer: 100
[5]; Postemergence, 62 g ai/ha
  Plant response rating, Pigweed, Palmer: 100
[5]; Postemergence, 125 g ai/ha
  Plant response rating, Pigweed, Palmer: 100
[6]; [20]
  Plant response rating, Surinam Grass: 0
[6]; [22]
  Plant response rating, Surinam Grass: 15
[6]; 125 g ai/ha, scale 0 to 100
  Plant response rating, Surinam Grass: 100
[7]; Postemergence, 8 g ai/ha
  Plant response rating, Crabgrass, Brazil: 60
[7]; Postemergence, 16 g ai/ha
  Plant response rating, Crabgrass, Brazil: 75
[7]; Postemergence, 31 g ai/ha
  Plant response rating, Crabgrass, Brazil: 85
[7]; Postemergence, 62 g ai/ha
  Plant response rating, Crabgrass, Brazil: 95
[7]; Postemergence, 125 g ai/ha
  Plant response rating, Crabgrass, Brazil: 95
[8]; [20]
  Plant response rating, Ragweed: 0
[8]; [21]
  Plant response rating, Ragweed: 0
[8]; [22]
  Plant response rating, Ragweed: 0
[8]; 125 g ai/ha, scale 0 to 100
  Plant response rating, Ragweed: 50
